Source: US6730792B2, “β3 adrenergic agonists” (Eli Lilly and Company, priority 2000, dated 2004)

Molecular target: T1, human β3 adrenergic receptor (Homo sapiens, UniProt P13945)
T1 construct: expressed in transfected cells; host or cells: DXB-11 Chinese hamster ovary (CHO) cell line, stably transfected (phd expression vector)
Test: whole cell receptor coupled c-AMP assay, human β3 receptor in CHO cells (EC50, Emax relative to isoproterenol)
Format: cell-based
Conditions: Emax ± standard error of the mean; average of at least 3 runs except where n = 1; compound tested in the isolated form listed
How it was run: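 Stably transfected DXB-11 CHO cells (20,000/well) were exposed to compound for 20 min at 37 °C in HBSS/HEPES buffer with 1 mM IBMX, pH 7.4. cAMP was measured by SPA. EC50 came from a four-parameter logistic fit, and Emax is the maximal response as a percentage of isoproterenol's.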

T1 sequence (P13945 whole entry): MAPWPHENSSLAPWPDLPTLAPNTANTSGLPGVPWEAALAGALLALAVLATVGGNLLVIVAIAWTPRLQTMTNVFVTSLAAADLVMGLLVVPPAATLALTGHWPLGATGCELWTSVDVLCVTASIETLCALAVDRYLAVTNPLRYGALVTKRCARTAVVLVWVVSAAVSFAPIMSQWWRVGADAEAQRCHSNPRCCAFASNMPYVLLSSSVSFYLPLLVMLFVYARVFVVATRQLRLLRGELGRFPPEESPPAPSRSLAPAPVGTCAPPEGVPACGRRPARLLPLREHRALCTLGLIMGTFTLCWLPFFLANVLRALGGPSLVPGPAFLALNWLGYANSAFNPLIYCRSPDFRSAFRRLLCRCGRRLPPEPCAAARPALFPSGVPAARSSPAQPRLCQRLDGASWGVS

Row | SMILES | Emax (%) ± SEM [%]
1 | CC(C)(Cc1ccc(Oc2ccc(Cl)cn2)cc1)NC[C@H](O)COc1ccccc1-c1cccs1.O=C(O)C(F)(F)F [Example 167] | 57.3 ± 3.5
2 | CC(C)(Cc1ccc(Oc2ccc(Cl)cn2)cc1)NC[C@H](O)COc1ccccc1-c1ccno1.O=C(O)C(F)(F)F [Example 169] | 43.3 ± 6.8
3 | CC(C)(Cc1ccc(Oc2ccc(C(F)(F)F)cc2Cl)cc1)NC[C@H](O)COc1ccccc1-c1cccs1.O=C(O)C(F)(F)F [Example 170] | 55.0 ± 4.8
4 | CC(C)(Cc1ccc(Oc2ncc(Cl)cc2Cl)cc1)NC[C@H](O)COc1ccccc1-c1cccs1.O=C(O)C(F)(F)F [Example 173] | 87.9 ± 4.5
5 | CC(C)(Cc1ccc(Oc2ncc(Cl)cc2Cl)cc1)NC[C@H](O)COc1ccccc1-c1ccno1.O=C(O)C(F)(F)F [Example 174] | 59.3 ± 3.2
6 | CC(C)(Cc1ccc(Oc2cccc(Cl)n2)cc1)NC[C@H](O)COc1ccccc1-c1nccs1.O=C(O)C(F)(F)F [Example 176] | 57.0 ± 7.6
7 | CC(C)(Cc1ccc(Oc2ncccc2Cl)cc1)NC[C@H](O)COc1ccccc1-c1cccs1.O=C(O)C(F)(F)F [Example 178] | 64.4 ± 5.2
8 | CC(C)(Cc1ccc(Oc2ncccc2Cl)cc1)NC[C@H](O)COc1ccccc1-c1nccs1.O=C(O)C(F)(F)F [Example 179] | 62.2 ± 8.6
9 | CC(C)(Cc1ccc(Oc2ncccc2Cl)cc1)NC[C@H](O)COc1ccccc1-c1ccno1.O=C(O)C(F)(F)F [Example 180] | 52.4 ± 6.9
10 | CC(C)(Cc1ccc(Oc2ccc(S(C)(=O)=O)cc2Cl)cc1)NC[C@H](O)COc1ccccc1-c1cccs1.O=C(O)C(F)(F)F [Example 181] | 66.2 ± 1.6
11 | CC(C)(Cc1ccc(Oc2ccc(S(C)(=O)=O)cc2Cl)cc1)NC[C@H](O)COc1ccccc1-c1nccs1.O=C(O)C(F)(F)F [Example 182] | 57.6 ± 7.1
12 | CC(C)(Cc1ccc(Oc2ccc(S(C)(=O)=O)cc2Cl)cc1)NC[C@H](O)COc1ccccc1-c1ccno1.O=C(O)C(F)(F)F [Example 183] | 53.7 ± 4.3
13 | CCOC(=O)c1ccc(Oc2ccc(CC(C)(C)NC[C@H](O)COc3ccccc3-c3cccs3)cc2)c(F)c1.O=C(O)C(F)(F)F [Example 184] | 64.1 ± 3.2
14 | CCOC(=O)c1ccc(Oc2ccc(CC(C)(C)NC[C@H](O)COc3ccccc3-c3nccs3)cc2)c(F)c1.O=C(O)C(F)(F)F [Example 185] | 45.1 ± 2.6
15 | CCOC(=O)c1ccc(Oc2ccc(CC(C)(C)NC[C@H](O)COc3ccccc3-c3ccno3)cc2)c(F)c1.O=C(O)C(F)(F)F [Example 186] | 41.1 ± 8.2
16 | CC(C)(Cc1ccc(Oc2ccc(C#N)cc2F)cc1)NC[C@H](O)COc1ccccc1-c1cccs1.O=C(O)C(F)(F)F [Example 187] | 45.1 ± 1.5
17 | CC(C)(Cc1ccc(Oc2ccc(C#N)cc2F)cc1)NC[C@H](O)COc1ccccc1-c1nccs1.O=C(O)C(F)(F)F [Example 188] | 38.3 ± 5.7
18 | CC(C)(Cc1ccc(Oc2ccc(C(N)=O)cc2F)cc1)NC[C@H](O)COc1ccccc1-c1cccs1.O=C(O)C(F)(F)F [Example 190] | 54.5 ± 3.3
19 | CC(C)(Cc1ccc(Oc2ccc(C(N)=O)cc2F)cc1)NC[C@H](O)COc1ccccc1-c1nccs1.O=C(O)C(F)(F)F [Example 191] | 49.5 ± 1.5
20 | CC(C)(Cc1ccc(Oc2cccnc2C(N)=O)cc1)NC[C@H](O)COc1ccccc1-c1cccs1.O=C(O)C(F)(F)F [Example 196] | 74.4 ± 3.3

Row | SMILES | Emax (%) ± SEM [%]
21 | CC(C)(Cc1ccc(Oc2cccnc2C(N)=O)cc1)NC[C@H](O)COc1ccccc1-c1nccs1.O=C(O)C(F)(F)F [Example 197] | 67.7 ± 2.7
22 | CC(C)(Cc1ccc(Oc2cccnc2C(N)=O)cc1)NC[C@H](O)COc1ccccc1-c1ccno1.O=C(O)C(F)(F)F [Example 198] | 48.1 ± 6.5
23 | CC(C)(Cc1ccc(Oc2cccnc2C(N)=O)cc1)NC[C@H](O)COc1ccccc1-c1ccns1.O=C(O)C(F)(F)F [Example 199] | 83.0 ± 4.0
24 | CC(C)(Cc1ccc(Oc2ccncc2)cc1)NC[C@H](O)COc1ccccc1-c1cccs1.O=C(O)C(F)(F)F [Example 202] | 59.1 ± 6.0
25 | CC(C)(Cc1ccc(Oc2ccncc2)cc1)NC[C@H](O)COc1ccccc1-c1nccs1.O=C(O)C(F)(F)F [Example 203] | 57.8 ± 3.1
26 | CC(C)(Cc1ccc(Oc2ccc(C(N)=O)nc2)cc1)NC[C@H](O)COc1ccccc1-c1cccs1.O=C(O)C(F)(F)F [Example 205] | 70.3 ± 0.3
27 | CC(C)(Cc1ccc(Oc2ccc(C(N)=O)nc2)cc1)NC[C@H](O)COc1ccccc1-c1ccns1.O=C(O)C(F)(F)F [Example 207] | 70.5 ± 4.9
28 | CC(C)(Cc1ccc(Oc2ccc(Cl)nn2)cc1)NC[C@H](O)COc1ccccc1-c1cccs1.O=C(O)C(F)(F)F [Example 208] | 92.4 ± 7.3
29 | CC(C)(Cc1ccc(Oc2ccc(Cl)nn2)cc1)NC[C@H](O)COc1ccccc1-c1nccs1.O=C(O)C(F)(F)F [Example 209] | 88.3 ± 8.0
30 | CC(C)(Cc1ccc(Oc2ccc(Cl)nn2)cc1)NC[C@H](O)COc1ccccc1-c1ccns1.O=C(O)C(F)(F)F [Example 211] | 88.5 ± 9.3
31 | CC(C)(Cc1ccc(Oc2ccccc2C#N)cc1)NC[C@H](O)COc1ccccc1-c1ccno1.O=C(O)C(F)(F)F [Example 212] | 68.9 ± 3.1
32 | CC(C)(Cc1ccc(Oc2ccccc2C#N)cc1)NC[C@H](O)COc1ccccc1-c1ccns1.O=C(O)C(F)(F)F [Example 213] | 63.0 ± 3.2
33 | CC(C)(Cc1ccc(Oc2ccccc2C#N)cc1)NC[C@H](O)COc1ccc(F)cc1-c1cccs1.O=C(O)C(F)(F)F [Example 214] | 42.4 ± 9.4
34 | CC(C)(Cc1ccc(Oc2cccc(Cl)c2C#N)cc1)NC[C@H](O)COc1ccccc1-c1cccs1.O=C(O)C(F)(F)F [Example 216] | 85.4 ± 4.9
35 | CC(C)(Cc1ccc(Oc2cccc(Cl)c2C#N)cc1)NC[C@H](O)COc1ccccc1-c1ccno1.O=C(O)C(F)(F)F [Example 217] | 76.2 ± 8.3
36 | CC(C)(Cc1ccc(Oc2cccc(Cl)c2C(N)=O)cc1)NC[C@H](O)COc1ccccc1-c1cccs1.O=C(O)C(F)(F)F [Example 218] | 76.5 ± 1.7
37 | CC(C)(Cc1ccc(Oc2ccc(C#N)nc2)cc1)NC[C@H](O)COc1ccccc1-c1cccs1.O=C(O)C(F)(F)F [Example 220] | 56.0 ± 2.9
38 | CC(C)(Cc1ccc(Oc2ccc(C#N)nc2)cc1)NC[C@H](O)COc1ccccc1-c1ccno1.O=C(O)C(F)(F)F [Example 221] | 40.8 ± 8.3
39 | CC(C)(Cc1ccc(Oc2ccc(S(C)(=O)=O)cc2F)cc1)NC[C@H](O)COc1ccccc1-c1nccs1.O=C(O)C(F)(F)F [Example 224] | 37.0 ± 0.3

Results, then the molecule that gave them:

Row | Emax (%) ± SEM [%] | SMILES
40 | 56.1 ± 4.5 | CC(C)(Cc1ccc(Oc2ccc(Cl)cn2)cc1)NC[C@H](O)COc1ccccc1-c1nccs1.O=C(O)C(F)(F)F [Example 168]
41 | 47.9 ± 6.5 | CC(C)(Cc1ccc(Oc2ccc(C(F)(F)F)cc2Cl)cc1)NC[C@H](O)COc1ccccc1-c1nccs1.O=C(O)C(F)(F)F [Example 171]
42 | 40.4 ± 8.8 | CC(C)(Cc1ccc(Oc2ccc(C(F)(F)F)cc2Cl)cc1)NC[C@H](O)COc1ccccc1-c1ccno1.O=C(O)C(F)(F)F [Example 172]
43 | 67.4 ± 3.9 | CC(C)(Cc1ccc(Oc2cccc(Cl)n2)cc1)NC[C@H](O)COc1ccccc1-c1cccs1.O=C(O)C(F)(F)F [Example 175]
44 | 46.0 ± 1.7 | CC(C)(Cc1ccc(Oc2cccc(Cl)n2)cc1)NC[C@H](O)COc1ccccc1-c1ccno1.O=C(O)C(F)(F)F [Example 177]
45 | 35.1 ± 5.2 | CC(C)(Cc1ccc(Oc2ccc(C#N)cc2F)cc1)NC[C@H](O)COc1ccccc1-c1ccno1.O=C(O)C(F)(F)F [Example 189]
46 | 40.3 ± 6.9 | CC(C)(Cc1ccc(Oc2ccc(C(N)=O)cc2F)cc1)NC[C@H](O)COc1ccccc1-c1ccno1.O=C(O)C(F)(F)F [Example 192]
47 | 73.5 ± 3.2 | CC(C)(Cc1ccc(Oc2ccc(C(F)(F)F)cn2)cc1)NC[C@H](O)COc1ccccc1-c1cccs1.O=C(O)C(F)(F)F [Example 193]
48 | 56.6 ± 4.2 | CC(C)(Cc1ccc(Oc2ccc(C(F)(F)F)cn2)cc1)NC[C@H](O)COc1ccccc1-c1nccs1.O=C(O)C(F)(F)F [Example 194]
49 | 48.1 ± 3.8 | CC(C)(Cc1ccc(Oc2ccc(C(F)(F)F)cn2)cc1)NC[C@H](O)COc1ccccc1-c1ccno1.O=C(O)C(F)(F)F [Example 195]
50 | 67.6 ± 4.0 | CCOC(=O)c1ccc(Oc2ccc(CC(C)(C)NC[C@H](O)COc3ccccc3-c3cccs3)cc2)c(Cl)c1.O=C(O)C(F)(F)F [Example 204]
51 | 64.2 ± 8.1 | CC(C)(Cc1ccc(Oc2ccc(C(N)=O)nc2)cc1)NC[C@H](O)COc1ccccc1-c1nccs1.O=C(O)C(F)(F)F [Example 206]
52 | 89.1 ± 2.7 | CC(C)(Cc1ccc(Oc2ccc(Cl)nn2)cc1)NC[C@H](O)COc1ccccc1-c1ccno1.O=C(O)C(F)(F)F [Example 210]
53 | 50.4 ± 6.3 | CC(C)(Cc1ccc(Oc2cccc(Cl)c2C(N)=O)cc1)NC[C@H](O)COc1ccccc1-c1ccno1.O=C(O)C(F)(F)F [Example 219]
54 | 59.0 ± 10.0 | CCOC(=O)c1ccc(Oc2ccc(CC(C)(C)NC[C@H](O)COc3ccccc3-c3nccs3)cc2)c(Cl)c1.O=C(O)C(F)(F)F [Example 222]
55 | 63.7 ± 3.1 | CC(C)(Cc1ccc(Oc2ccc(S(C)(=O)=O)cc2F)cc1)NC[C@H](O)COc1ccccc1-c1cccs1.O=C(O)C(F)(F)F [Example 223]
56 | 59.5 ± 4.3 | CC(C)(Cc1ccc(Oc2ccc(S(N)(=O)=O)cc2F)cc1)NC[C@H](O)COc1ccccc1-c1cccs1.O=C(O)C(F)(F)F [Example 225]
